We go through four compounds from patent US20180169117A1, “PHARMACEUTICAL FORMULATION COMPRISING A SUBSTITUTED PHENYL - (1,3-DIHYDRO-ISOINDOL-2-YL) - METHANONE” (OTSUKA PHARMACEUTICAL CO., LTD., priority 2014, published 2018).

Where two headings read alike, the source gives them in different places. Where only a bound is given, the exact number is not on record here.

Data set [1] concerns Bortezomib refractory multiple myeloma cell lines. Conditions: Mitsiades et al. 2006; cited from earlier work.
The next data set deals with MM-1 cells. Conditions: 17-AAG treated MM-1 cells; Mitsiades et al. 2006; cited from earlier work.
The nature of another data set: physchem. It counts as physicochemical. Conditions: for solubility thermodynamic / solubility: aqueous buffer, thermodynamic from solid, read-out: L-Lactate Salt of Compound of Formula (I) Concentration. How it is done:
Buffers were prepared using monobasic and dibasic salts of sodium phosphate in order to achieve the correct buffer concentrations and pH as follows:
The pH of each buffer was the target pH±0.05. Minor adjustments with small amounts of dilute sodium hydroxide were made to both of the 200 mM buffers to meet this criterion.
(§1) Aliquots of 1 g of the L-lactate salt of the compound of formula (I) were weighed into individual 20 ml scintillation vials and 10 ml of each buffer was added to a vial. An additional sample was prepared in deionised water. Samples were covered in aluminium foil to protect from light and mixed using a magnetic stirrer overnight.
(§2) The appearance of each sample was recorded. Samples were transferred to centrifuge tubes and centrifuged at 3500rpm for 15 minutes. The samples prepared using the 200 mM buffers were visually free of undissolved material, but were centrifuged in order to make sure that all samples were treated the same. The supernatants were retained for determination of compound of formula (I) by UV and pH measurement.
(§3) Assay by UV: A calibration curve was prepared using the L-lactate salt of the compound of formula (I) dissolved in deionised water and covering the range 0 to 0.10 mg/ml. Absorbance was determined at 286 nm. Samples were diluted as necessary using deionised water and absorbance determined at 286 nm versus a blank. The content of the compound of formula (I) was determined using the standard curve. All UV readings were taken in duplicate.

The nature of data set [2]: Solubility in deionised water, acetate, succinate and citrate buffers (Example 5). In kind it is physicochemical. Conditions: thermodynamic from solid, read-out: Solubility L-lactate salt of compound of formula (I). How it is done:
as §1, §2, §3
In a manner analogous to Example 3, formulations were prepared of the L-lactate salt of the compound of formula (I) with acetate, succinate and citrate buffers at different concentrations and at different pH. As shown in the table below, neither the acetate nor citrate buffers were as useful as the phosphate buffer formulation of Example 3, but the succinate buffer gave good L-lactate salt solubility.

Data set [3] in a line: Effect of surfactant (polysorbate 80, Tween) on solubility in phosphate buffer pH 7.2 (Example 6). In kind it is physicochemical. Conditions: for increase in solubility on addition of Tween: physiological pH, 1-8 (w/v) Tween versus no Tween; for solubility: sodium phosphate buffer, 200 mM phosphate, read-out: Solubility of L-lactate salt of compound of formula (I). On the procedure: Solutions of sodium phosphate buffer at a pH of 7.2 were prepared with and without polysorbate 80 (Tween) and the solubilities of the L-lactate salt of the compound of formula (I) were determined.

In a further data set the test system is K562 cells. Conditions: Gone et al. 2002; cited from earlier work.
The next data set deals with HSP90. Description: Hsp90 inhibition (statement). It counts as biochemical. Conditions: no value.
In data set [4] the test system is patients with advanced solid tumours. Description: Phase I study, Two-Consecutive Day (QDx2) dosing schedule. It counts as in vivo, human.
Data set [5] deals with vemurafenib sensitive and resistant models of melanoma. Conditions: Rodriguez-Lopez et al., AACR 2012; cited from earlier work.
Data set [6] relates to solid tumours refractory to standard therapy. Conditions: cited from earlier work.
The subject of a further data set is refractory solid tumours. Conditions: including three GIST patients; Mahadevan et al. 2012; cited from earlier work.

Take `C=CCNC1=C2C[C@@H](C)C[C@H](OC)[C@H](O)[C@@H](C)/C=C(\C)[C@H](OC(N)=O)[C@@H](OC)/C=C\C=C(/C)C(=O)NC(=CC1=O)C2=O` [17-AAG]: the proliferation entry in data set [1] is reported as “potently inhibits proliferation”. Moreover, in the data set with MM-1 cells, the “cell surface levels of IGF-1R and IL-6R” value is listed as “diminished”.
Consider `CC(C)c1cc(C(=O)N2Cc3ccc(CN4CCN(C)CC4)cc3C2)c(O)cc1O.C[C@H](O)C(=O)O` [(2,4-Dihydroxy-5-isopropyl-phenyl)-[5-(4-methyl-piperazin-1-ylmethyl)-1,3-dihydro-isoindol-2-yl]-methanone L-lactate salt], for which the solubility thermodynamic in the data set “physchem” (sodium phosphate buffer 50 mM/pH 5.0, pH of supernatant 5.13) was 77.3 mg/mL; in the data set “physchem” (sodium phosphate buffer 50 mM/pH 5.5, pH of supernatant 5.18) it was 75.9 mg/mL. In addition, the solubility in the data set “physchem” (sodium phosphate buffer 200 mM/pH 5.0 (fifth line of table), pH of supernatant 4.99) is not below 95.7 mg/mL; in “physchem” (sodium phosphate buffer 200 mM/pH 5.5, pH of supernatant 5.08) it was not below 94.8 mg/mL; in [2] (acetate buffer, aqueous buffer, 50 mM Acetate pH 5.5, pH 4.87) it was 24.4 mg/mL; in [2] (acetate buffer, aqueous buffer, 50 mM Acetate pH 6.0, pH 5.03), 19.1 mg/mL; in [2] (citrate buffer, aqueous buffer, 50 mM Citrate pH 5.5, pH 5.23), 85.6 mg/mL; in data set [2] (citrate buffer, aqueous buffer, 50 mM Citrate pH 6.0, pH 5.55), 83.9 mg/mL. For the same compound, the solubility was found to be 78.3 mg/mL in data set [2] (succinate buffer, aqueous buffer, 50 mM Succinate pH 5.5, pH 5.38); 78.3 mg/mL in data set [2] (succinate buffer, aqueous buffer, 50 mM Succinate pH 6.0, pH 5.69); 89.9 mg/mL in [2] (succinate buffer, aqueous buffer, 100 mM Succinate pH 6.0, pH 5.76); 89.2 mg/mL in data set [2] (succinate buffer, pH 5.3, aqueous buffer, 100 mM Succinate pH 5.5, pH 5.30); 59.5 mg/mL in data set [2] (Deionised water, pH 5.52); 21 mg/mL in data set [3] (aqueous buffer, pH 7.2, Tween 0 % (w/v)). In addition, the solubility in [3] (aqueous with cosolvent or surfactant or cyclodextrin, pH 7.2, Tween 1-8 % (w/v)) fell in the range of 33 to 34 mg/mL. The “L-Lactate Salt of Compound of Formula (I) Concentration” value came out at 86.3 mg/mL in the data set “physchem” (sodium phosphate buffer 100 mM/pH 5.5, pH of supernatant 5.10) and 89.0 mg/mL in “physchem” (sodium phosphate buffer 200 mM/pH 5.0 (third line of table), pH of supernatant 5.05). In addition, the “increase in solubility on addition of Tween” value is reported as 1.5 fold in [3] and “approximately 1.5 fold” in data set [3] (listed as lactate salt of the compound of formula (I)).
Regarding `Cc1ccc(NC(=O)c2ccc(CN3CCN(C)CC3)cc2)cc1Nc1nccc(-c2cccnc2)n1` [Gleevec], the apoptosis entry with K562 cells is given as “induces apoptosis”.
For `CC(C)c1cc(C(=O)N2Cc3ccc(CN4CCN(C)CC4)cc3C2)c(O)cc1O` [compound of formula (I), (2,4-Dihydroxy-5-isopropyl-phenyl)-[5-(4-methyl-piperazin-1-ylmethyl)-1,3-dihydro-isoindol-2-yl]-methanone], in the data set on HSP90, the HSP90 inhibition result is listed as “potent HSP90 inhibitor”. The tolerability entry in data set [4] is recorded as “well tolerated”. Further, in data set [5], the “efficacy in melanoma models” value is reported as “effective”. In addition, the “PET scan, metabolic activity of the tumour” value in data set [6] (GIST patient, 220 mg/m^2 weekly, before and after treatment, Shapiro 2011) was “substantial reduction in the metabolic activity of the tumour”. Moreover, the “stable disease for beyond 2 cycles of treatment” value in data set [6] (twice weekly schedule, further patients, Shapiro et al. 2010) is “five of the original twenty one patients”. In addition, the “stable disease for at least six months” value in [6] (twice weekly schedule, one melanoma, one thyroid cancer, Shapiro et al. 2010) is given as “two of the original twenty one patients”. Moreover, the “objective and durable partial response and stable disease” value in the data set with refractory solid tumours is listed as “five patients”.
